Results on three molecules are retold here after patent US20040176329A1, “Drugs for promoting the proliferation, differentiation and/or survival of glial cells containing cyclic phosphatidic acid” (priority 2001, published 2004).

One test has as its system NIH-3T3. The experiment in a line: Formation of stress fiber in NIH-3T3 by addition of lysophospholipids. Type of test: cell-based, mouse. The conditions noted are these: 10 μM, 37° C., 30 minutes, subconfluent serum starvation state; control: no formation. The protocol: NIH-3T3, a mouse-derived fibroblast cell, was incubated in a Dulbecoo's Modified Eagle's Medium (DMEM) containing 10% fetal bovine serum (FBS; made by Moregate), and was used in the Experiment. 2.5 ×10^4 cells of the NIH-3T3 were inoculated in a petri dish (10 cm in diameter) paved with cover glasses of 22 mm in diameter, and the medium was replacing with a FBS-free medium after 24 hours, and the cells were incubated in a serum starvation state for 48 hours. 10 μM of the lysophospholipid was added, and the cells were incubated at 37° C. for 30 minutes for stimulation. Then, the cells were fixed in the Dalbecco's PBS containing 3.7% of paraformaldehyde and 0.1% of Triton X-100 at room temperature for 10 minutes. Thereafter, the cells were stained with 5 units/ml of rhodamine phalloidin (made by Funakoshi) at 37° C. for 1 hour. The cover glasses were washed with PBS thrice, and observation was carried out by a cofocus laser microscope TCS NT Control laser Scanning Microscope (made by Leica).
The product obtained by the A.sp.362-derived PLD reaction was studied with respect to its biochemical activity in order to confirm further that it was a compound which is identical to cPA. Namely, the activity of forming actin stress fiber in a fibroblast cell, one of the physiological activities of cPA, was studied. To NIH-3T3, i.e. a fibroblast cell line derived from mouse, in the subconfluent state in the serum starvation state, each 10 μM of LPA, a chemically synthesized PHYLPA, or cPA, i.e. the PLD reaction product was added at 37° C. for 30 minutes, and then actin stress fiber was stained with Rhodamine phalloidin, and observation was carried out.

In the next test the test system is O-2A precursor cells. As to the kind of experiment: Oligodendrocyte primary culturing system with cPA or LPA added: O-2A precursor cells. The conditions noted are these: 5 μM per dish; for number of O-2A precursor cells versus control: 6th day from first passage (1P-6th day). Type of test: cell-based, rat. As to the method:
(§1) A mother rat of 18 days of pregnancy (E18Wistar Rat) was put into an anesthesia bottle containing an adequate amount of diethyl ether, and was anesthetized. The anesthetization was carried out for 3-5 minutes and stopped just before death. The mother rat was taken out of the anesthesia bottle, put on a suitable vat to lie on its back, and disinfected at the hypogastric area with ethanol. The rat was tom along a cut line about 3-4 cm upward from the tail joint by a scissors, and opened sideward with the scissors to separate the inner membrane from the skin. The skin was tom to expose the inner membrane, which was disinfected again with ethanol and tom to take out the uterus. The Y-shaped section of the uterus was cut while lifting the uterus, and the uterus was taken out. The taken out uterus was dipped in a cooled MEM^− in order to decrease the damage of the fetus brain.
(§2) The cerebral cortex was picked by a round pincette into a 35 mm dish to which 2 ml of dispase I (3 U/ml) was added, and was placed in a CO2 5% and humidity 95% incubator at 37° C. for 5 minutes. Then, Dnase (1 ml) was added thereto, and the dish was put in the incubator for 10 minutes again. The resultant solution was sufficiently pipetted while being careful not to make bubbles by a Pasteur pipette having the top end rounded by burning, so that the cells might be free from any bundles. The upper inlet of 50 ml tube was covered with a 70 μm mesh, and the mesh was then wetted with an adequate amount of MEM^−. The cell suspension thus obtained was poured into the tube through the mesh, and about 2 ml of MEM^− was poured to wash the mesh. The mesh was removed, and the resultant was messed up to 30-40 ml with MEM^−. The thus obtained sample was centrifuged at 1,000 rpm for 5 minutes, and the supernatant was removed. The sample was messed up again to 30-40 ml with MEM^−, pipetted and centrifuged again at 1,000 rpm. The supernatant was removed, and the sample was supplied with 30 ml of MEM^−, and sufficiently pipetted, and then the cell number was countered by a cell counter. The cell suspension was inoculated in the PLL-coated dishes to be 1.0×10^7 cells/dish. The liquid was adjusted with MEM^+ to be a final volume of 10 ml/dish, and the cells were cultured in an incubator.
After disposal of the culture medium, the dish is washed twice with about 3 ml of PBS(−), and 10 ml of the fresh culture medium is poured. The medium change after the 17th day is carried out using B.S (serum-free medium). […]
(§3) The dish is washed twice with about 5 ml of PBS(−). […] Then, the cell number is counted by a cell counter. The supernatant is discarded, 20-30 ml of MEM^+ (B.S at the third passage) is added, and the resultant is pipetted, and the cell number is counted by a cell counter. […]

The test system of test [1] is primary cultured cerebral cortex cells (neurons). As to the kind of experiment: Oligodendrocyte primary culturing system with cPA or LPA added: cell appearance at early culturing stage. Type of test: cell-based, rat. To be noted: 5 μM per dish, FIG. 7; for aggregation of cells and bundling of neurons: early culturing stage (P-6th day). The protocol: as §1
as §2, with “The sample was messed up again to 30-40 ml with MEM^−, pipetted and centrifuged again at 1,000 rpm. The supernatant was removed, and the sample was supplied with 30 ml of MEM^−, and sufficiently pipetted, and then the cell number was countered by a cell counter. The cell suspension was inoculated in the PLL-coated dishes to be 1.0×10^7 cells/dish. The liquid was adjusted with MEM^+ to be a final volume of 10 ml/dish, and the cells were cultured in an incubator.” left out
as §3

The next test concerns oligodendrocytes. As to the kind of experiment: Oligodendrocyte primary culturing system with cPA or LPA added: oligodendrocytes. The conditions noted are these: 5 μM per dish; for oligodendrocyte cell number and dendrites: further 10 days after 3P-OL, FIG. 13. Type of test: cell-based, rat. As to the method:
as §1, §2
(§4) After disposal of the culture medium, the dish is washed twice with about 3 ml of PBS(−), and 10 ml of the fresh culture medium is poured. The medium change after the 17th day is carried out using B.S (serum-free medium). Only at the first medium change, 200 μl of bFGF is added per dish. It is because the O-2A precursor cell is grown.
(§5) The dish is washed twice with about 5 ml of PBS(−). At the first passage, the dish is left stand for 2-3 minutes after supplying PBS(−) at the second time. 2-3 ml of 0.05% trypsin is added, and the dish is left stand in a 37° C. incubator for 8 minutes. After observation of the cell condition with a microscope, while keeping the trypsin as it was, the dish is supplied with MEM^+ at the same amount as the trypsin, and the cells is pipetted to stop the action of trypsin. The resultant was centrifuged at 1,000 rpm for 5 minutes. After removing the supernatant, 20-30 ml of MEM^− is added, and the resultant is pipetted again, centrifuged at 1,000 rpm for 5 minutes. Then, the cell number is counted by a cell counter. The supernatant is discarded, 20-30 ml of MEM^+ (B.S at the third passage) is added, and the resultant is pipetted, and the cell number is counted by a cell counter. Depending on respective passage stages, the cells are inoculated in respective dishes at the following number, and are cultured while left standing in an incubator.
(§6) From the stage of primary culturing, cPA or LPA was added to be an amount of 5 μM per dish every passage and medium change. […]

The next test has as its system astrocytes. As to the kind of experiment: Oligodendrocyte primary culturing system with cPA or LPA added: astrocytes. Type of test: cell-based, rat. The conditions noted are these: 5 μM per dish; for astrocytes by GFAP staining: 2P-6th day, fluorescence microscope, FIG. 10; for state and cell density of astrocytes: 6th day from second passage (2P-6th day), serum-free medium, FIG. 9; for remaining astrocytes: 6th day from third passage (3P-6th day), FIG. 11. The protocol:
as §1, §2, §4, §5, §6

[2] abbreviates: 3P-6th day, fluorescence microscope, FIG. 12.

Take `CCCCCC[C@@H]1C[C@@H]1CCCCCCCC(=O)OC[C@@H]1COP(=O)(O)O1` [PHYLPA]: in the test with NIH-3T3, the “formation of actin stress fiber (Rhodamine phalloidin staining)” value (“formation of actin stress fiber” for short) is on record as “formation of stress fibers was observed”.

On to lysophosphatidic acid [LPA], for which the “number of O-2A precursor cells versus control” value in the test on O-2A precursor cells (FIG. 8) was “increase in number more remarkably”. Also, the “cell appearance versus control” value in test [1] (6th day from primary culturing (P-6th day)) is reported as “no large difference in cell appearance”. For the same molecule, the “aggregation of cells and bundling of neurons” value in test [1] was “aggregate to form bundles of the neurons”. In addition, the “differentiation of oligodendrocytes by 04 staining” value in the test on oligodendrocytes (2P-6th day, fluorescence microscope, FIG. 10) was “elongated dendrites to form fine mesh-shape and differentiations is proceeded”. The “state of dendrites of oligodendrocytes” value in the test with oligodendrocytes (3P-6th day, FIG. 11) was “dendrites of the oligodendrocytes suffer from aoptosis and begin to be ragged”. Also, the “extent of MBP staining along the dendrite” value in the test on oligodendrocytes (3P-6th day, FIG. 12) is listed as “even the tip of the dendrite is stained”. Besides, the “MBP staining colour versus control” value in the test on oligodendrocytes (setting [2]) is reported as “develops color stronger”. Also, the “oligodendrocyte cell number and dendrites” value in the test with oligodendrocytes was “the cell number itself decreased and the dendrite fell ragged”. Further, in the test on astrocytes, the “astrocytes by GFAP staining” value is listed as “the tissue of the astrocytes can be confirmed”; the “state and cell density of astrocytes” value was “lowered in cell density, though not so wrong as in the control”; the remaining astrocytes entry is “little astrocytes remains”. In addition, the “formation of actin stress fiber” value in the test with NIH-3T3 is “formation of stress fibers was observed”.

As for `CCCCCCCC/C=C\CCCCCCCC(=O)OCC1COP(=O)(O)O1` (stereo not shown) [cPA, 1-oleoyl cyclic phosphatidic acid], the cell density entry with O-2A precursor cells (1P-6th day, FIG. 8) is “much higher than the others”. Further, in the test with O-2A precursor cells (FIG. 8), the “number of O-2A precursor cells versus control” value is “increase in number more remarkably”. Further, the “proliferation of O-2A precursor cells (conclusion)” value in the test with O-2A precursor cells (early culturing stage) is “promotes O-2A precursor cells to proliferate”. Moreover, the “aggregation of cells and bundling of neurons” value in test [1] was “causes cells to aggregate and neurons to be bundled”. Moreover, the “MBP staining colour versus control” value in the test with oligodendrocytes (setting [2]) was “develops color stronger”. Moreover, the “oligodendrocyte cell number and dendrites” value with oligodendrocytes is recorded as “many dendrites of oligodendrocytes around them which were not suffered from apoptosis”. Further, in the test on astrocytes, the “astrocytes by GFAP staining” value is “exists in a dense tissue”; the “state and cell density of astrocytes” value is “remained vigorous, and remained high in cell density”; the remaining astrocytes entry is on record as “the astrocytes which was deformed to the narrow ones still remain”. For the same molecule, the “survival of astrocytes (conclusion)” value in the test with astrocytes (all culturing stages) is on record as “promotes the survival of astrocytes through all their culturing stages”. Moreover, the survival of astrocytes result with astrocytes (further 10 days after 3P-OL, FIG. 13) is recorded as “the astrocytes survived even at this stage”. Moreover, the “formation of actin stress fiber” value in the test on NIH-3T3 was “formation of stress fibers was observed”.
